Structures are written as SMILES. pEC50: −log10 of the molar value. Counter-ions that a name gives are not always drawn. Like-named read-outs stand apart in the source and are kept apart here.

The test system of this experiment is HCT-15. In words: HCT-15 data of payloads and linker-payloads (EC50, with or without verapamil). Type of experiment: cell-based. As to conditions: payload.
Where [1] appears, read: Homo sapiens, HCT-15 cells, no verapamil, read-out: HCT-15 EC50.
The mark [2] stands for this setting: HCT-15 cells plus verapamil, read-out: HCT-15 + verapamil EC50.

As usually defined, the pEC50 is the negative decadic logarithm of the EC50, by convention in mol/L. Turning to `CC[C@@]1(O)C(=O)OCc2c1cc1n(c2=O)Cc2c-1nc1cc(F)c(C)c3c1c2[C@@H](NS(C)(=O)=O)CC3` [P6, N-[(10S,23S)-10-ethyl-18-fluoro-10-hydroxy-19-methyl-5,9-dioxo-8-oxa-4,15-diazahexacyclo[[14.7.1.0^2,^14.0^4,^13.0^6,^11.0^20,^24]]tetracosa-1,6(11),12,14,16,18,20(24)-heptaen-23-yl]methanesulfonamide], the pEC50 was 8.13 under setting [1] and 8.50 under setting [2].
For the compound `CC[C@@]1(O)C(=O)OCc2c1cc1n(c2=O)Cc2c-1nc1cc(F)c(C)c3c1c2[C@@H](NCCS(C)(=O)=O)CC3` [P7, (10S,23S)-10-ethyl-18-fluoro-10-hydroxy-23-[(2-methanesulfonylethyl)amino]-19-methyl-8-oxa-4,15-diazahexacyclo[[14.7.1.0^2,^14.0^4,^13.0^6,^11.0^20,^24]]tetracosa-1,6(11),12,14,16,18,20(24)-heptaene-5,9-dione], the pEC50 is, setting by setting: under setting [1], 8.25; under setting [2], 8.77.
In the case of `CC[C@@]1(O)C(=O)OCc2c1cc1n(c2=O)Cc2c-1nc1ccccc1c2CCNC(C)C` [P8, Belotecan HCl salt, reference compound], the pEC50 by setting is: under setting [2], 8.51; (HCT-15 cells, no verapamil, read-out: HCT-15 EC50) 7.70.
For `CC[C@@]1(O)C(=O)OCc2c1cc1n(c2=O)Cc2c-1nc1ccccc1c2CCN(C(C)C)S(C)(=O)=O` [P9, N-{2-[(19S)-19-ethyl-19-hydroxy-14,18-dioxo-17-oxa-3,13-diazapentacyclo[11.8.0.0^2,^11.0^4,^9.0^15,^20]henicosa-1(21),2,4,6,8,10,15(20)-heptaen-10-yl]ethyl}-N-(propan-2-yl)methanesulfonamide], the pEC50 runs as follows: under setting [1], 8.05; under setting [2], 8.52.
For `CC[C@@]1(O)C(=O)OCc2c1cc1n(c2=O)Cc2c-1nc1ccccc1c2CCN(CCO)C(C)C` [P10, (19S)-19-ethyl-19-hydroxy-10-{2-[(2-hydroxyethyl)(propan-2-yl)amino]ethyl}-17-oxa-3,13-diazapentacyclo[11.8.0.0^2,^11.0^4,^9.0^15,^20]henicosa-1(21),2,4,6,8,10,15(20)-heptaene-14,18-dione], the pEC50 reads like this: under setting [1], 8.07; under setting [2], 8.36.
For `CC[C@@]1(O)C(=O)OCc2c1cc1n(c2=O)Cc2c-1nc1cc(F)c(C)c3c1c2[C@@H](NC(=O)CO)CC3` [P12, Dxd, reference compound], the negative-log EC50 (pEC50) by setting is: (Homo sapiens, HCT-15 cells plus verapamil, read-out: HCT-15 + verapamil EC50) 8.38; under setting [1], 8.10.
With `CC[C@@](O)(C(=O)NCCN)c1cc2n(c(=O)c1COC(C)=O)Cc1c-2nc2cc(F)c(C)c3c2c1[C@@H](NC(=O)COC(C)=O)CC3` [P13, {[(19S)-6-[(Acetyloxy)methyl]-7-[(1 S)-1-[(2-aminoethyl)carbamoyl]-1-hydroxypropyl]-14-fluoro-15-methyl-5-oxo-4,11-diazapentacyclo[10.7.1.0^2,^10.0^4,^9.0^16,^20]icosa-1,6,8,10,12,14,16(20)-heptaen-19-yl]carbamoyl}methyl acetate], the negative logarithm of the EC50 (pEC50) under setting [1] was 6.87.
`CC[C@@]1(O)C(=O)OCc2c1cc1n(c2=O)Cc2cc3cc(O)ccc3nc2-1` [P14, 10-hydroxy camptothecin, reference compound]: the negative-log EC50 (pEC50) was 7.94 under setting [1] and 8.17 under setting [2].
For the compound `CC[C@@]1(O)C(=O)OCc2c1cc1n(c2=O)Cc2cc3cc(OC)ccc3nc2-1` [P15, (19S)-19-Ethyl-19-hydroxy-7-methoxy-17-oxa-3,13-diazapentacyclo[11.8.0.0^2,^11.0^4,^9.0^15,^20]henicosa-1(21),2,4,6,8,10,15(20)-heptaene-14,18-dione], the negative logarithm of the EC50 (pEC50) reads like this: under setting [1], 8.16; under setting [2], 8.35.
Take `CCc1c2c(nc3ccc(O)cc13)-c1cc3c(c(=O)n1C2)COC(=O)[C@]3(O)CC` [P16, 7-ethyl-10-hydroxycamptothecin, reference compound]: the pEC50 by setting is: under setting [1], 8.21; under setting [2], 8.32.

Values taken from patent US20230287138A1, “PROTEIN-DRUG CONJUGATES COMPRISING CAMPTOTHECIN ANALOGS AND METHODS OF USE THEREOF” (Regneron Pharmaceuticals, Inc., priority 2022, published 2023).
